Literature values as cited in patent EP4197526A1, “HYDROGEL FORMULATION COMPRISING ZEBULARINE AND RETIONIC ACID” (Uniwersytet Gdanski, priority 2021, dated 2023).
Where “and” joins values, the source holds several entries; their conditions need not be identical. Equal values may be shown once.

Settings: literature data

**Q.** Which solubility in water does the source give for `O=c1ncccn1[C@@H]1O[C@H](CO)[C@@H](O)[C@H]1O` [zebularine] here?
**A.** Its solubility in water is “up to 50 mg/ml”.

**Q.** Which solubility in water does the source give for `CC1=C(/C=C/C(C)=C/C=C/C(C)=C/C(=O)O)C(C)(C)CCC1` [retinoic acid] here?
**A.** The solubility in water was 0.000063 mg/ml and 0.21 microM.
